# Results taken from US11198695B2, “Fused ring derivative having MGAT-2 inhibitory activity” (Shionogi & Co., Ltd., priority 2017, dated 2021).
# Like-named read-outs stand apart in the source and are kept apart here.
# Assays:
# [1] = Metabolism stability test; type: in vitro ADME; conditions: human liver microsomes, 30 minutes, 37° C., NADPH, 0.5 μmol/L of test compound
# Method: Using commercially available pooled human hepatic microsomes, the compound of the present invention was reacted for a constant time, a remaining rate was calculated by comparing a reacted sample and an unreacted sample, thereby, a degree of metabolism of the compound of the present invention in liver was assessed.
# A reaction was performed (oxidative reaction) at 37° C. for 0 minute or 30 minutes in the presence of 1 mmol/L NADPH in 0.2 mL of a buffer (50 mmol/L Tris-HCl pH 7.4, 150 mmol/L potassium chloride, 10 mmol/L magnesium chloride) containing 0.5 mg protein/mL of human liver microsomes. After the reaction, 50 μL of the reaction solution was added to 100 μL of a methanol/acetonitrile=1/1 (v/v) solution, mixed and centrifuged at 3000 rpm for 15 minutes. The compound of the present invention in the supernatant was quantified by LC/MS/MS, and a remaining amount of the compound of the present invention after the reaction was calculated, letting a compound amount at 0 minute reaction time to be 100%. (Result) Remaining rate was shown at 0.5 μmol/L of test compound.
# recombinant human MGAT2 = recombinant human MGAT2 (Homo sapiens (Human), UniProt Q3SYC2); experiment: Measurement of human MGAT2 inhibitory activity; type: biochemical
# Sequence of recombinant human MGAT2 (Q3SYC2 whole entry): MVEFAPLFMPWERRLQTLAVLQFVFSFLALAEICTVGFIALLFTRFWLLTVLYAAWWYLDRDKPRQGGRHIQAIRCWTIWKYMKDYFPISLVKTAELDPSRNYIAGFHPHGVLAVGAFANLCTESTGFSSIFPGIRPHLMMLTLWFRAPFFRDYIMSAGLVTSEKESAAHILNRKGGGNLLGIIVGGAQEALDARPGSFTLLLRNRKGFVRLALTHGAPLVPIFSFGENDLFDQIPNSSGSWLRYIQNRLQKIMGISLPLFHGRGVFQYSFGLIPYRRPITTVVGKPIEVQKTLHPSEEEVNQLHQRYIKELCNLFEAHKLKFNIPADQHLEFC
# Summary of the method: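 RapidFire ESI-MS read-out of the diolein/diolein-d5 peak ratio gave % inhibition, with no-enzyme and full-enzyme wells as 100% and 0%. Reactions ran 1 h at room temperature at pH 7.4 (phosphate, 2 mmol/L DTT), using Flag-tagged human MGAT2 membranes from Sf9 cells and a substrate solution of 30 μmol/L 2-oleoylglycerol and 10 μmol/L oleoyl-CoA.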
# [2] = BA test (oral absorption); type: in vivo; conditions: plasma; oral vs intravenous administration, mice or SD rats
# Method: Materials and Methods for Experiments to Evaluate Oral Absorption
# (1) Animals: the mice or SD rats were used.
# (2) Breeding conditions: the mice or SD rats were allowed to freely take solid food and sterilized tap water.
# (3) Setting of dosage and grouping: Oral administration and intravenous administration were performed with a predetermined dosage. Grouping was set as below. (dosage changed per compound)
# Oral administration: 1 to 30 mg/kg (n=2 to 3)
# Intravenous administration: 0.5 to 10 mg/kg (n=2 to 3)
# (4) Preparation of administration solution: Oral administration was performed in the form of a suspension or a solution. Intravenous administration was performed after solubilization.
# (5) Routes of administration: Oral administration was performed mandatory into the stomach by oral sonde. […]
# (6) Evaluation items: blood was collected over time, and the plasma concentration of the compound of the present invention was measured by LC/MS/MS.
# (7) Statistical analysis: regarding the transition of the plasma concentration of the compound of the present invention, the area under the plasma concentration-time curve (AUC) was calculated by non-linear least squares program WinNonlin (registered trademark), and the bioavailability (BA) of the compound of the present invention was calculated from the AUCs of the oral administration group and intravenous administration group.
# Powder solubility test = type: physicochemical; conditions: pH 6.8, aqueous buffer, thermodynamic from solid, JP-2 solution, 37° C.
# Method: Appropriate quantity of the compound of the present invention was put in suitable containers. 200 μL of JP-1 solution (water was added to 2.0 g of sodium chloride and 7.0 mL of hydrochloric acid to reach 1000 mL), 200 μL of JP-2 solution (500 mL of water was added to 500 mL of phosphate buffer (pH 6.8)) or 20 mmol/L sodium taurocholate (TCA)/JP-2 solution (JP-2 solution was added to 1.08 g of TCA to reach 100 mL) was independently added to each container. When total amount was dissolved after adding the test reagent, the compound of the present invention was added appropriately. After sealing and shaking at 37° C. for 1 hour, solution is filtrated and 100 μL of methanol is added to 100 μL of each filtrate to dilute two-fold. The dilution rate is changed as necessary. After checking that there was no bubble and deposit, the container was sealed and shaken. The compound of the present invention was measured using HPLC by absolute calibration curve method.
# [3] = Solubility test (1% DMSO addition, pH 6.8 artificial intestinal juice); type: physicochemical; conditions: 16 hours at 25° C.; for solubility at 16 h: pH 6.8 artificial intestinal juice with 1% DMSO, kinetic from dmso stock
# Method: The solubility of the compound of the present invention was determined under 1% DMSO addition conditions. 10 mmol/L solution of the compound was prepared with DMSO, and 6 μL of the solution of the compound of the present invention was added to 594 μL of pH 6.8 artificial intestinal juice (118 mL of 0.2 mol/L NaOH test solution and water were added to 250 mL of 0.2 mol/L potassium dihydrogen phosphate test solution to reach 1000 mL). The mixture was left standing for 16 hours at 25° C., and the mixture was vacuum-filtered. The filtrate was two-fold diluted with methanol/water=1/1 (V/V), and the compound concentration in the filtrate was measured with HPLC or LC/MS/MS by the absolute calibration method.
# hERG channel (IKr) = hERG channel (IKr) (Homo sapiens (Human), UniProt Q12809); experiment: hERG test; type: cell-based; conditions: pH 7.4, CHO cells expressing hERG channel, 10 μmol/L of test compound, read-out: % inhibition of tail peak current (IKr)
# Sequence of hERG channel (IKr) (Q12809 whole entry): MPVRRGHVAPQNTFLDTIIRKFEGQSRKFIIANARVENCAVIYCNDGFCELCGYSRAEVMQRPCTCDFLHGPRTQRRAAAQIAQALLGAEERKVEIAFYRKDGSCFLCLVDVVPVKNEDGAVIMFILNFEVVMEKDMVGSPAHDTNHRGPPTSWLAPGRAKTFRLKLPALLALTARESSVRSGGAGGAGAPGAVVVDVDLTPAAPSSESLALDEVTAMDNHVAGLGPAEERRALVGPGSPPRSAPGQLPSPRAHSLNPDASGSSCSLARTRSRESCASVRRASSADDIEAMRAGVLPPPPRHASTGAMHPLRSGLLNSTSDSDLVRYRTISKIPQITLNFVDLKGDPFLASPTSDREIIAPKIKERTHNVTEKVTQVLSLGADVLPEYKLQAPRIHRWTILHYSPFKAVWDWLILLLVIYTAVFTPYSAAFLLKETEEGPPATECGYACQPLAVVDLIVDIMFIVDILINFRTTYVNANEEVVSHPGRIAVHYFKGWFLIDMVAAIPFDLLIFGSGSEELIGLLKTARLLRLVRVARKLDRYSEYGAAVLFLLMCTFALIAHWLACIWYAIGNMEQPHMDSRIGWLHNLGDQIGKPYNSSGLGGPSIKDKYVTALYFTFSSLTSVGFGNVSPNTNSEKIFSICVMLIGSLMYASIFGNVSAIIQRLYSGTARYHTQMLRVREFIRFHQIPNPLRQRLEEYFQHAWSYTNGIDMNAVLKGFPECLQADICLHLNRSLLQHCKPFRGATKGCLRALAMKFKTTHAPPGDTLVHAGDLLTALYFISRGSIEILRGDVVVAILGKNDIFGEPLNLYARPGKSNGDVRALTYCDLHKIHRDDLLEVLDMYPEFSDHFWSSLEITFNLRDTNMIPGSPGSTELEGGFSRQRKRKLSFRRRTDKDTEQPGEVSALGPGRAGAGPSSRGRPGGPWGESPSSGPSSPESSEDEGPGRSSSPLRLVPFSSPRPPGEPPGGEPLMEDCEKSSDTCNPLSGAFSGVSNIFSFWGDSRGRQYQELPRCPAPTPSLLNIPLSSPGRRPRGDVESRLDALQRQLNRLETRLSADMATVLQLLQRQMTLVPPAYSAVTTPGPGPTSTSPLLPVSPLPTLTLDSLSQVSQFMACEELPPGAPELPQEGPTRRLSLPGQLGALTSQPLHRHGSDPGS
# Excerpt: For the purpose of assessing risk of an electrocardiogram QT interval prolongation of the compound of the present invention, effects of the compound of the present invention on delayed rectifier K^+ current (IKr), which plays an important role in the ventricular repolarization process, was studied using CHO cells expressing human ether-a-go-go related gene (hERG) channel.
# After a cell was retained at a membrane potential of −80 mV by whole cell patch clamp method using an automated patch clamp system (QPatch; Sophion BIoscience A/S), IKr induced by application of a leak potential of −50 mV followed by depolarization pulse stimulation at +20 mV for 2 seconds and, further, repolarization pulse stimulation at −50 mV for 2 seconds, was recorded. […] From the recording IKr, an absolute value of the tail peak current was measured based on the current value at the resting membrane potential using analysis software (Falster Patch; Sophion Bioscience A/S). Further, the % inhibition of tail peak current for the compound of the present invention relative to the tail peak current after application of the vehicle is calculated to assess influence of the compound of the present invention on IKr. (Result) % inhibition was shown at 10 μmol/L of test compound.
# CYP2C19 = CYP2C19 (Homo sapiens (Human), UniProt P33261); experiment: CYP inhibition test (mephenytoin 4'-hydroxylation); type: in vitro ADME; conditions: pooled human liver microsomes
# Sequence of CYP2C19 (P33261 whole entry): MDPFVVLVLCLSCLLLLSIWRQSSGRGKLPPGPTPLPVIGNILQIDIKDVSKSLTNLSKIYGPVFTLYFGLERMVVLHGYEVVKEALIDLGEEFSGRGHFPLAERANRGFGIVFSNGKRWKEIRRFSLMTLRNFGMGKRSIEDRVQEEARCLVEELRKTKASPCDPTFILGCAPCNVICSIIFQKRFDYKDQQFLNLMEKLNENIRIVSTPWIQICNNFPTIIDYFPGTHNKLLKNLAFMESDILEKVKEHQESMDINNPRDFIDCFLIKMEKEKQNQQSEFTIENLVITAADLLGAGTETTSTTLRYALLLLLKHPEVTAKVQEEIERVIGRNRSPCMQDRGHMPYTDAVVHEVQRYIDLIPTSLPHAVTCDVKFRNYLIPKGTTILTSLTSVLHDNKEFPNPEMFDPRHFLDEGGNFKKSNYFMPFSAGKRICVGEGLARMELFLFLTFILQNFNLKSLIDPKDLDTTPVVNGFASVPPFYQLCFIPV
# Excerpt: (§1) Using commercially available pooled human hepatic microsome, and employing, as markers, 7-ethoxyresorufin O-deethylation (CYP1A2), tolbutamide methyl-hydroxylation (CYP2C9), mephenytoin 4′-hydroxylation (CYP2C19), dextromethorphan O-demethylation (CYP2D6), and terfenadine hydroxylation (CYP3A4) as typical substrate metabolism reactions of human main five CYP enzyme forms (CYP1A2, 2C9, 2C19, 2D6, 3A4), an inhibitory degree of each metabolite production amount by the compound of the present invention was assessed. […]
# (§2) As a reaction solution, each five kinds of substrates, human liver microsomes, or compound of the present invention in 50 mmol/L Hepes buffer were added to a 96-well plate at the composition as described above, and NADPH, as a cofactor was added to initiate metabolism reactions. […] After the centrifugation at 3000 rpm for 15 minutes, resorufin (CYP1A2 metabolite) in the supernatant was quantified by a fluorescent multilabel counter or LC/MS/MS, and tolbutamide hydroxide (CYP2C9 metabolite), mephenytoin 4′ hydroxide (CYP2C19 metabolite), dextrorphan (CYP2D6 metabolite), and terfenadine alcohol (CYP3A4 metabolite) were quantified by LC/MS/MS.
# (§3) Addition of only DMSO being a solvent dissolving a drug to a reaction system was adopted as a control (100%). Remaining activity (%) was calculated. […]
# CYP3A4 [4] = molecular target: T1, CYP3A4 (Homo sapiens (Human), UniProt P08684); experiment: CYP inhibition test (terfenadine hydroxylation); type: in vitro ADME; conditions: pooled human liver microsomes
# T1 sequence (P08684 whole entry): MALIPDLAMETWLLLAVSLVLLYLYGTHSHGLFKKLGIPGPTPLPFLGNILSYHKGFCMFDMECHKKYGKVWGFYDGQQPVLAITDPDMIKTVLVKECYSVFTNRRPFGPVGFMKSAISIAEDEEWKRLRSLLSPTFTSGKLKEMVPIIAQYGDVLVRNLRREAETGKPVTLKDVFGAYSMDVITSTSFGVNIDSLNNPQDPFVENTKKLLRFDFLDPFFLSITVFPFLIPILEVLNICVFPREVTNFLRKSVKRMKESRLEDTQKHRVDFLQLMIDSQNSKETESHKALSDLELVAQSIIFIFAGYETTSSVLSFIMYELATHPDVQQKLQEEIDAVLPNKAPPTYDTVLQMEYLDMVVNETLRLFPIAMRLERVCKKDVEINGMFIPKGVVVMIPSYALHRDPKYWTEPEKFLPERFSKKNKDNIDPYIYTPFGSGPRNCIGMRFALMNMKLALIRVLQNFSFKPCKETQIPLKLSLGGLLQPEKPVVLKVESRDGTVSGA
# Excerpt: as §1, §2, §3
# CYP1A2 = CYP1A2 (Homo sapiens (Human), UniProt P05177); experiment: CYP inhibition test (7-ethoxyresorufin O-deethylation); type: in vitro ADME; conditions: pooled human liver microsomes
# Sequence of CYP1A2 (P05177 whole entry): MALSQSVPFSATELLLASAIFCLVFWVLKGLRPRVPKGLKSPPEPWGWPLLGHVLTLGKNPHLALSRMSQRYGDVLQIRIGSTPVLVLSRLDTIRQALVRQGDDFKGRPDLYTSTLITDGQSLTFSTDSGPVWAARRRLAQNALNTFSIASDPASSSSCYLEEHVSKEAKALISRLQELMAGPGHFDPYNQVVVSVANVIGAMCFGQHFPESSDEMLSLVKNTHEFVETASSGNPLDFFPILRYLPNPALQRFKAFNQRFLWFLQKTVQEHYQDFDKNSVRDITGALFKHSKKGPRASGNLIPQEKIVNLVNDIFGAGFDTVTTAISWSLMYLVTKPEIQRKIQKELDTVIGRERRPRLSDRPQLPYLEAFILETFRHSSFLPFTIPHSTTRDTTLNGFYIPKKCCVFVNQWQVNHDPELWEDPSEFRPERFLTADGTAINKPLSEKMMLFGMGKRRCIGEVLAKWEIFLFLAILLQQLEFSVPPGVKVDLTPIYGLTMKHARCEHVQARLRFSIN
# Excerpt: as §1, §2, §3
# CYP2C9 = CYP2C9 (Homo sapiens (Human), UniProt P11712); experiment: CYP inhibition test (tolbutamide methyl-hydroxylation); type: in vitro ADME; conditions: pooled human liver microsomes
# Sequence of CYP2C9 (P11712 whole entry): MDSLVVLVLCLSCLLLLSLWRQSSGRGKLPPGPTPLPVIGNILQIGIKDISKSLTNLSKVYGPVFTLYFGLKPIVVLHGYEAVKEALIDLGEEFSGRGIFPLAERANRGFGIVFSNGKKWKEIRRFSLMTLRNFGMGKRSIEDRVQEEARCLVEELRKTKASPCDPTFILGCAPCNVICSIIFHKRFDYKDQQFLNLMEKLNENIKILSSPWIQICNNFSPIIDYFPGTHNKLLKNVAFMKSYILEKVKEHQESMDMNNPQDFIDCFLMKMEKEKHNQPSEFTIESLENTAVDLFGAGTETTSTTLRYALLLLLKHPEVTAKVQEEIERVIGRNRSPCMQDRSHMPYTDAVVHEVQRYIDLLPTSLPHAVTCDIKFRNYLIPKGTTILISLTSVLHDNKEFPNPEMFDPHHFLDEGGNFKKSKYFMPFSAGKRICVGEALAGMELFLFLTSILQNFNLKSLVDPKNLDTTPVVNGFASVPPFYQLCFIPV
# Excerpt: as §1, §2, §3
# CYP3A4 [5] = molecular target: T1, CYP3A4; experiment: CYP3A4 (MDZ) MBI test; type: in vitro ADME; conditions: pooled human liver microsomes, preincubation 0 or 30 min
# Method: CYP3A4 (MDZ) MBI test is a test of investigating mechanism based inhibition (MBI) potential on CYP3A4 by the enhancement of inhibitory degree of a metabolic reaction caused by the compound of the present invention. CYP3A4 inhibition was evaluated using pooled human liver microsomes by 1-hydroxylation reaction of midazolam (MDZ) as a marker reaction. […]
# Pooled human liver microsomes and a solution of the compound of the present invention in K-Pi buffer (pH 7.4) as a pre-reaction solution were added to a 96-well plate at the composition of the pre-reaction. […] The plate on which each index reaction had been performed was centrifuged at 3000 rpm for 15 minutes, and thereafter 1-hydroxylated midazolam in the supernatant was quantified by LC/MS/MS.
# The sample adding DMSO as a solvent to a reaction system instead of a solution dissolving the compound of the present invention was adopted as a control (100%). Remaining activity (%) was calculated at each concentration of the compound of the present invention compared to a control, and IC value was calculated by reverse-presumption by a logistic model using a concentration and an inhibition rate. […]
# CYP2D6 = CYP2D6 (Homo sapiens (Human), UniProt P10635); experiment: CYP inhibition test (dextromethorphan O-demethylation); type: in vitro ADME; conditions: pooled human liver microsomes
# Sequence of CYP2D6 (P10635 whole entry): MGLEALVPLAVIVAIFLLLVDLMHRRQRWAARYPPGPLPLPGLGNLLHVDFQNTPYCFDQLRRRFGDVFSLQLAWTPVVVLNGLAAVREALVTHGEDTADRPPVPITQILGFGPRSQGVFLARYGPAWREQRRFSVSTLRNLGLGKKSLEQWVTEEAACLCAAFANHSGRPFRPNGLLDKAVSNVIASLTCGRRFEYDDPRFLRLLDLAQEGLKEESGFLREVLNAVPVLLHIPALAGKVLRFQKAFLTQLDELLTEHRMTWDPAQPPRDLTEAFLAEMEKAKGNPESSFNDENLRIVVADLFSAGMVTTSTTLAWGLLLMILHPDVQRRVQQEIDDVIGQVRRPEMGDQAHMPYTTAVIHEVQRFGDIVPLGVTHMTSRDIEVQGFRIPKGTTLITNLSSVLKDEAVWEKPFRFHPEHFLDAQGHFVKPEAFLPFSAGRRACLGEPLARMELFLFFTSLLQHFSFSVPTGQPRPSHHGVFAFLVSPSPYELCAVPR
# Excerpt: as §1, §2, §3
# [6] = read-out: IC50 (concentration exhibiting 50% enzyme inhibition), Table 53
SMILES,Remaining rate (%) [1],IC50 (recombinant human MGAT2; [6]),solubility at 16 h [3],further results
CS(=O)(=O)CC(=O)Nc1c2c(nn1CCCOC(F)(F)F)C[C@]1(CCc3cc(OCC(F)(F)F)ccc31)NC2=O [Compound I-253],76.8%,,> 50 µM,"inhibition at 10 min, 10 μmol/L (hERG channel (IKr)): 6.9%"
O=C1N[C@@]2(CCOc3cc(OCCCC(F)(F)F)ccc32)Cc2nn(CCC3CC3)c(-c3nn[nH]n3)c21 [Compound I-200],94%,,> 50 µM,"IC50 (recombinant human MGAT2; read-out: IC50 (concentration exhibiting 50% enzyme inhibition), Table 52): 5.6 nM"

# Second part, led by results:
Remaining rate (%) [1],IC50 (recombinant human MGAT2; [6]),solubility at 16 h [3],SMILES,further results
98.4%,3.81 nM,> 50 µM,Cc1ccc(-n2nc3c(c2NC(=O)CS(C)(=O)=O)C(=O)N[C@](C)(c2ccc(OCC(F)(F)F)cc2F)C3)nc1 [II-94],bioavailability [2]: 73%; solubility at 1 h (Powder solubility test): 3.4 µM
89.7%,2.91 nM,,CS(=O)(=O)CC(=O)Nc1c2c(nn1CCCOC(F)(F)F)C[C@@]1(CCOc3cc(OCC(F)(F)F)ccc31)NC2=O [II-121],Solubility [3]: >50 µM
95.6%,,> 50 µM,Cc1ccc(-n2nc3c(c2NC(=O)CS(C)(=O)=O)C(=O)N[C@@]2(CCc4cc(OCCCC(F)(F)F)ccc42)C3)nn1 [II-103],IC50 (CYP2C19): > 20000 nM; IC50 (CYP3A4 [4]): > 20000 nM; IC50 (CYP1A2): > 20000 nM; IC50 (CYP2C9): > 20000 nM; CYP3A4 (MDZ) MBI judgement (Shifted IC) (CYP3A4 [5]): Negative (a case that Shifted IC was 1.0 or less was regarded as Negative); IC50 (CYP2D6): > 20000 nM
